# Laboratory results: ChEMBL document CHEMBL1153709, “NSAID-derived gamma-secretase modulators. Part III: Membrane anchoring” (Bioorg Med Chem Lett, 2009)
# How the values were obtained:
# Type in all cases: cell-based
# [1] = system: H4; test: Cytotoxicity against human H4 cells by MTS assay
# [2] = target: Gamma-secretase; test: Modulation of gamma-secretase in human H4 cells assessed as inhibition of in amyloid beta40 production by LPECL assay
# [3] = target: Gamma-secretase; test: Modulation of gamma-secretase in human H4 cells assessed as increase in amyloid beta38 production by LPECL assay
# [4] = target: Gamma-secretase; test: Modulation of gamma-secretase in human H4 cells assessed as inhibition of in amyloid beta42 production by LPECL assay
# [5] = target: Gamma-secretase (Homo sapiens) (UniProt Q96BI3+Q9NZ42+Q8WW43+P49768+Q92542+P49810); test: Modulation of gamma-secretase in human H4 cells assessed as reduction of in amyloid beta42 production at 40 uM by LPECL assay; parameters: scale not given: the % may be the effect or the level left
SMILES,Activity [1] [µM],IC50 [2] [µM],EC50 [3] [µM],IC50 [4] [µM],Activity [5] [%]
CC(C)(Oc1ccc(/C(=N\OCCCCCCCCCCO/N=C(/c2ccc(Cl)cc2)c2ccc(OC(C)(C)C(=O)O)cc2)c2ccc(Cl)cc2)cc1)C(=O)O,80,> 40,> 40,> 32.6,–
CN(C)c1ccc(/N=N/c2ccc(S(=O)(=O)n3c4ccccc4c4ccc(OCC(=O)O)cc43)cc2)cc1,–,> 80,7.6,9,–
CCCCCCCCCO/N=C(/c1ccc(Cl)cc1)c1ccc(OC(C)(C)C(=O)O)cc1,–,> 40,> 40,> 40,–
CCCCCCCC/C=C\CCCCCCCC(=O)n1c2ccccc2c2ccc(OCC(=O)O)cc21,–,> 40,9.2,13.1,–
N#Cc1ccccc1-c1ccc(Cn2c3ccccc3c3ccc(OCC(=O)O)cc32)cc1,–,> 80,> 80,> 80,–
CCCCCCCCCCCCCCO/N=C(/c1ccc(Cl)cc1)c1ccc(OC(C)(C)C(=O)O)cc1,–,> 80,> 80,> 80,–
CC(C)(Oc1ccc(/C(=N\OCCCCCCCCO/N=C(/c2ccc(Cl)cc2)c2ccc(OC(C)(C)C(=O)O)cc2)c2ccc(Cl)cc2)cc1)C(=O)O,–,37.3,47.6,23.7,–
CCCCCCCCO/N=C(/c1ccc(Cl)cc1)c1ccc(OC(C)(C)C(=O)O)cc1,80,47.6,16.1,36.2,60
CCCCCCCCCCO/N=C(/c1ccc(Cl)cc1)c1ccc(OC(C)(C)C(=O)O)cc1,–,> 80,> 80,36.1,60
CCCCCCCCCCCO/N=C(/c1ccc(Cl)cc1)c1ccc(OC(C)(C)C(=O)O)cc1,–,> 40,> 40,> 40,–
CC(C)(Oc1ccc(/C(=N\OCCCCCCCCCO/N=C(/c2ccc(Cl)cc2)c2ccc(OC(C)(C)C(=O)O)cc2)c2ccc(Cl)cc2)cc1)C(=O)O,80,> 40,> 40,> 40,–
CC(C)(Oc1ccc(C(/N=N/c2ccc([N+](=O)[O-])cc2[N+](=O)[O-])c2ccc(Cl)cc2)cc1)C(=O)O (stereo not given),80,37.3,47.6,17,–
CCCCCCCCCC(=O)n1c2ccccc2c2ccc(OCC(=O)O)cc21,–,> 40,12.6,22.4,–
CN(C)c1cccc2c(S(=O)(=O)n3c4ccccc4c4ccc(OCC(=O)O)cc43)cccc12,80,> 40,> 40,> 40,–
CCCCCCCCCCCCCCCCCCn1c2ccccc2c2ccc(OCC(=O)O)cc21,–,> 80,1.4,26,–
O=C(O)COc1ccc2c3ccccc3n(Cc3cccc(C4(C(F)(F)F)N=N4)c3)c2c1,–,> 80,> 80,> 80,–
CCCCCCCC/C=C/CCCCCCCC(=O)n1c2ccccc2c2ccc(OCC(=O)O)cc21,–,> 40,9.3,13,–
CCCCCCCCCCCCCCCCO/N=C(/c1ccc(Cl)cc1)c1ccc(OC(C)(C)C(=O)O)cc1,–,> 80,> 80,> 80,–
CCCCCCCCCCCCO/N=C(/c1ccc(Cl)cc1)c1ccc(OC(C)(C)C(=O)O)cc1,80,> 40,> 40,> 40,–
